Measured values published in article PMC13091788 (NPJ Aging, 2026).

Legend:
[1] = set-up: method as in PMID 24593257; conditions: cited from earlier work
[2] = test system: 24-month-old male C57BL/6 N mice; assay: Age-related cardiac dysfunction in aged mice; assay type: in vivo, mouse
From the text: All experimental procedures were approved by the Ethics Review Committee for Animal Experimentation at Kumamoto University, Kumamoto, Japan (approval No. A 2024-083). Procedures followed the guidelines and recommendations outlined by the ILAR Guide for the Care and Use of Laboratory Animals (8th Edition, 2011). Prior to tissue collection, mice were euthanized under isoflurane anesthesia, followed by cervical dislocation to ensure rapid euthanasia, a procedure also employed during sacrifice for tissue harvesting. Euthanasia was performed when animals met the established criteria for humane endpoints, specifically a body weight loss exceeding 20% over a 3-day period or 25% over a 1-week period, in accordance with the Kumamoto University Ethics Review Committee for Animal Experimentation above. All animals fed a normal diet (CE-2, CLEA) were randomly assigned to two groups: tap water only and tap water supplemented with AcA-BRB (0.5 mg/mL). Mice were housed in an animal facility with lighting cycles automatically controlled (12 h light/12 h dark), maintained at a stable temperature of 22 ± 2 °C and a relative humidity of 40–80%. C57BL/6NJcl wild-type (WT) male mice aged 2, 20, and 24 months were used in this study. Mice were preconditioned by chest hair removal with a topical depilatory (FUJIFILM VisualSonics), anesthetized with 1.5–2.5% isoflurane administered via inhalation, and maintained in a supine position on a dedicated animal handling platform with limbs immobilized for electrocardiogram gating during imaging. Body temperature was kept constant by relaying signals from a rectal probe to a heating pad, while heart and respiratory rates were continuously monitored. Transthoracic echocardiography was performed using a high-frequency ultrasound system dedicated to small-animal imaging (VisualSonics Vevo 3100, FUJIFILM VisualSonics) using a MS 400 linear array transducer (18–38 MHz). M-mode recording was performed at the midventricular level in the short-axis view. All images were analyzed using dedicated software (Vevo LAB version 5.7.1). LV wall thickness and internal cavity diameters at diastole (LVID;d) and systole (LVID;s) were measured. Percent LV fractional shortening (%FS) and Left Ventricular Ejection Fraction (LVEF) was calculated from M-mode measurements. To analyze cardiac diastolic function, trans-mitral flow velocity patterns and early diastolic mitral annular velocity (e’) were measured in the four-chamber view to calculate the ratio of early trans-mitral flow velocity (E) to e’ (E/e’). All procedures were performed under double-blind conditions with regard to genotype or treatment. Total RNA was extracted using a RNeasy Mini Kit (Qiagen). DNase-treated RNA was reverse-transcribed using a PrimeScript RT reagent Kit (Takara Bio). Heart tissue was homogenized using a multi-beads shocker (Yasui Kikai). Real-time quantitative RT-PCR was performed using TB Green Premix Ex Taq II (Takara Bio), and a Thermal Cycler Dice Real-Time System (Takara Bio). Relative transcript abundance was normalized to 18S rRNA levels. Primer sets used for RT-PCR are listed in Supplementary Table 3.

[3] = test system: mitochondria isolated from hearts of aged mice; assay: Oxygen consumption analysis of isolated cardiac mitochondria; assay type: in vivo, mouse; conditions: AcA-BRB 0.5 mg/mL in drinking water
Procedure: Mouse heart tissue was homogenized in mitochondrial isolation buffer (210 mM mannitol, 70 mM sucrose, 5 mM HEPES-KOH, 1 mM EGTA, 0.5% fatty acid-free BSA, pH 7.2) using a glass-teflon homogenizer. Homogenates were centrifuged at 27,000 × g for 10 min at 4 °C, and the resulting pellets were resuspended in mitochondrial isolation buffer. Samples were centrifuged at 500 × g for 5 min at 4 °C, and the supernatants were collected and centrifuged at 10,000 × g for 5 min at 4 °C. The pellet was then resuspended in mitochondrial isolation buffer and centrifuged for 5 min at 10,000 × g at 4 °C. The resulting pellets were suspended in BSA-free mitochondrial isolation buffer, and mitochondrial protein concentration was determined using the Bio-Rad Protein Assay Dye Reagent (Bio-Rad Laboratories). Samples were then incubated with an equal volume of mitochondrial isolation buffer and subjected to oxygen consumption analysis.
Isolated mitochondria were diluted with mitochondrial assay solution (220 mM mannitol, 70 mM sucrose, 2 mM HEPES-KOH, 1 mM EGTA, 10 mM KH2PO4, 5 mM MgCl2, 0.2% fatty acid-free BSA, 2 mM malate, 10 mM pyruvate, pH 7.2) to 80 μg/mL. […] OCR was measured under basal conditions and after each injection using an XFe24 extracellular flux analyzer (Seahorse Bioscience).

[4] = test system: 86-week-old aged mice; assay: Survival analysis in aged mice on normal diet; assay type: in vivo, mouse; conditions: 0.5 mg/mL in drinking water, from 86 weeks of age
From the text: All experimental procedures were approved by the Ethics Review Committee for Animal Experimentation at Kumamoto University, Kumamoto, Japan (approval No. A 2024-083). Procedures followed the guidelines and recommendations outlined by the ILAR Guide for the Care and Use of Laboratory Animals (8th Edition, 2011). Prior to tissue collection, mice were euthanized under isoflurane anesthesia, followed by cervical dislocation to ensure rapid euthanasia, a procedure also employed during sacrifice for tissue harvesting. Euthanasia was performed when animals met the established criteria for humane endpoints, specifically a body weight loss exceeding 20% over a 3-day period or 25% over a 1-week period, in accordance with the Kumamoto University Ethics Review Committee for Animal Experimentation above. All animals fed a normal diet (CE-2, CLEA) were randomly assigned to two groups: tap water only and tap water supplemented with AcA-BRB (0.5 mg/mL). Mice were housed in an animal facility with lighting cycles automatically controlled (12 h light/12 h dark), maintained at a stable temperature of 22 ± 2 °C and a relative humidity of 40–80%. C57BL/6NJcl wild-type (WT) male mice aged 2, 20, and 24 months were used in this study.

[5] = AcA-BRB 0.5 mg/mL in drinking water, 24-month-old mice, vs control
[6] = AcA-BRB 0.5 mg/mL in drinking water, aged mice

SMILES | water solubility (literature) [1] | blood pressure and heart rate vs control mice ([2]; 24-month-old mice, 3 months of treatment with AcA-BRB) | age-related progression of left ventricular dilatation, systolic dysfunction and diastolic dysfunction (echocardiography) ([2]; AcA-BRB 0.5 mg/mL in drinking water, 24-month-old mice, after 12 weeks, vs control) | cardiac hypertrophy (HW/TL ratio, histology) and pulmonary congestion (LW/TL ratio) [2, 5] | upregulation of genes associated with heart failure and cardiac fibrosis (qRT-PCR, heart) [2, 5] | LC3A/B II/I ratio in heart tissues (western blot) [2, 6] | expression of genes associated with ROS-scavenging systems (heart) [2, 6] | expression of genes associated with mitochondrial biogenesis, dynamics and mitophagy (heart) [2, 6] | p62 levels in heart tissues (western blot) [2, 6] | ROS production (4-HNE in isolated cardiac mitochondria) [3] | OCR of mitochondria isolated from hearts ([3]; vs controls) | survival rate [4]
COc1ccc2cc3n(cc-2c1=O)CCc1cc2c(cc1-3)OCO2 [Q-BRB, quinoid-type berberrubine] | water-insoluble | – | – | – | – | – | – | – | – | – | – | –
COc1ccc2cc3[n+](cc2c1O)CCc1cc2c(cc1-3)OCO2 [berberrubine] | – | comparable | ameliorated | improved | blocked | increase | upregulated | significantly increased | decrease | mild rise | improved | did not significantly affect
